Experimental data from patent US9622990B2, “Method for inhibiting cancer cell growth” (priority 2013, dated 2017).
≈ marks a conversion by molar mass, not a printed value.

What was measured:
Assay type in all cases: cell-based
[1] = test system: A549 cell line (lung cancer); experiment: MTT cell viability assay, A549; conditions: Homo sapiens, 48 hours, read-out: half maximal inhibitory concentration (IC50), A549
Method: (§1) Cell proliferation of A549 cell line (lung cancer), CT26 cell line (colon cancer), DU145 cell line (prostate cancer), HepG2 cell line (liver cancer), MDCK cell line (kidney from canine), PC3 cell line (prostate cancer), MDA-MB-231 cell line (breast cancer) and MCF-7 cell line (breast cancer) was assessed by MTT cell viability assay.
(§2) Above cell lines were cultured in determined medium for 24 hours. Proliferative cells were washed with PBS solution, treated with trypsin-EDTA (1×), centrifuged at 1,200 rpm for 5 min, precipitated the cells and discarded supernatant. The cells were resuspended with 10 ml of fresh medium, and then loaded to 96-well plate. While the assay initiated, 0.01˜200 μg/ml of Antrodia camphorata extract was added in each well, and the plate was incubated for 48 hours, at 37° C., 5% CO2. Each wall was added with 2.5 mg/ml MTT reagent in the dark. After 4 hours of reaction, 100 μl lysis buffer were added to each wall to terminate the reaction. […] The experiment data was represented by means±SD. All data was statistically analyzed by paired-t test, and a P-value less than 0.05 was considered significant.

[2] = test system: CT26 cell line (colon cancer); experiment: MTT cell viability assay, CT26; conditions: Mus musculus, 48 hours, read-out: half maximal inhibitory concentration (IC50), CT26
Method: as §1, §2

[3] = test system: DU145 cell line (prostate cancer); experiment: MTT cell viability assay, DU145; conditions: Homo sapiens; DU-145, MTT, 48 hours; read-out: half maximal inhibitory concentration (IC50), DU-145
Method: as §1, §2

[4] = test system: HepG2 cell line (liver cancer); experiment: MTT cell viability assay, HepG2; conditions: Homo sapiens, 48 hours, read-out: half maximal inhibitory concentration (IC50), HepG2
Method: as §1, §2

[5] = test system: MDCK cell line (kidney from canine); experiment: MTT cell viability assay, MDCK; conditions: Canis lupus familiaris, 48 hours, read-out: half maximal inhibitory concentration (IC50), MDCK
Method: as §1, §2

[6] = test system: PC3 cell line (prostate cancer); experiment: MTT cell viability assay, PC3; conditions: Homo sapiens, PC-3, 48 hours, read-out: half maximal inhibitory concentration (IC50), PC3
Method: as §1, §2

[7] = test system: MDA-MB-231 cell line (breast cancer); experiment: MTT cell viability assay, MDA-MB-231; conditions: Homo sapiens; MDA-MB-231, MTT, 48 hours; read-out: half maximal inhibitory concentration (IC50), MDA-MB-231
Method: as §1, §2

[8] = test system: MCF-7 cell line (breast cancer); experiment: MTT cell viability assay, MCF-7; conditions: Homo sapiens, MCF7; MCF-7, MTT, 48 hours; read-out: half maximal inhibitory concentration (IC50), MCF-7
Method: as §1, §2

various tumor cells = experiment: MTT cell viability assay, statements over all cell lines; conditions: for anti cancer activity, in words: summary of table 9
Method: as §1, §2
The symbols used in tables respectively represent: 0˜25% cell viability: +/−; 25˜50% cell viability: +; 50˜75% cell viability: ++, 75˜100% cell viability: +++, >100% cell viability: ++++. […] In this experiment, when the drug concentration was diluted to […], DMSO concentration was 0.5%.
Accordingly, above extracts can be used for treating cancers, such as lung cancer, colon cancer, prostate cancer, liver cancer and breast cancer, and the effective compounds contained in those extracts also can be purified.
The half maximal inhibitory concentration (IC50) is a measure of the effectiveness of a compound in inhibiting biological or biochemical function. This quantitative measure indicates how much of a particular drug or other substance (inhibitor) is needed to inhibit a given biological process (e.g. cell apoptosis-inducing activity of a compound) by half. […]

Row | Structure (SMILES) | IC50 [1] [µg/mL] | IC50 [2] [µg/mL] | IC50 [3] [µg/mL] | IC50 [4] [µg/mL] | IC50 [5] [µg/mL] | IC50 [6] [µg/mL] | IC50 [7] [µg/mL] | IC50 [8] [µg/mL] | anti cancer activity, in words (various tumor cells) | IC50 value of the solvent (50% cell death) (various tumor cells; DMSO content of the diluted drug, cell line not stated) [%]
1 | COC1=C(OC)[C@H](O)[C@H](C/C=C(\C)CC/C=C(\C)CC(O)C=C(C)C)[C@@H](C)C1=O (stereo partly shown) [Antrocamol LT1, 4-hydroxy-5-[9-hydroxy-3,7,11-trimethyldodeca-2,6,10-trienyl]-2,3-dimethoxy-6-methyl-cyclohex-2-enone] | 0.093 ± 0.003 (≈ 0.229 µM) | 0.07 ± 0.006 (≈ 0.172 µM) | 0.057 ± 0.009 (≈ 0.14 µM) | 0.014 ± 0.001 (≈ 0.0344 µM) | > 10 | 0.057 ± 0.002 (≈ 0.14 µM) | 0.98 ± 0.05 (≈ 2.41 µM) | 0.99 ± 0.08 (≈ 2.44 µM) | predominant anti cancer activity | –
2 | COC1=C(OC)[C@H](OC(C)=O)[C@H](C/C=C(\C)CC/C=C(\C)CC(O)C=C(C)C)[C@@H](C)C1=O (stereo partly shown) [Antrocamol LT2, 4-acetoxy-5-[9-hydroxy-3,7,11-trimethyldodeca-2,6,10-trienyl]-2,3-dimethoxy-6-methyl-cyclohex-2-enone] | 1.06 ± 0.22 (≈ 2.36 µM) | 0.8 ± 0.03 (≈ 1.78 µM) | 0.91 ± 0.08 (≈ 2.03 µM) | 0.59 ± 0.02 (≈ 1.32 µM) | > 10 | 0.69 ± 0.06 (≈ 1.54 µM) | 1.03 ± 0.05 (≈ 2.3 µM) | 0.95 ± 0.11 (≈ 2.12 µM) | predominant anti cancer activity | –
3 | C[S+](C)[O-] [DMSO] | – | – | – | – | – | – | – | – | – | 2.34
